Measurements reported in the NIST ThermoML archive (doi:10.1021/je900404r).

Tests used:
[1] = 101 kPa, Liquid, Vibrating tube method
[2] = xn = mol fraction of the nth substance listed; conditions: 101 kPa, Liquid, Vibrating tube method

ClCCCCCl [1,4-dichlorobutane]
[1]
Conditions	mass density [kg/m3]
288.15 K	1143.49
298.15 K	1132.57
308.15 K	1121.61
318.15 K	1110.61

ClC(Cl)Cl [trichloromethane]
[1]
Conditions	mass density [kg/m3]
288.15 K	1491.86
298.15 K	1473.16
308.15 K	1454.07
318.15 K	1434.72

ClCCCl [1,2-dichloroethane]
[1]
Conditions	mass density [kg/m3]
288.15 K	1260.01
298.15 K	1245.48
308.15 K	1230.83
318.15 K	1216.04

O=C1CCCCC1 [cyclohexanone]
[1]
Conditions	mass density [kg/m3]
288.15 K	951.69
298.15 K	942.76
308.15 K	933.8
318.15 K	924.82

ClCCCl [1,2-dichloroethane] + O=C1CCCCC1
mass density [kg/m3], [2]
Conditions	x1 = 0.1142	x1 = 0.2318	x1 = 0.3197	x1 = 0.4227	x1 = 0.519	x1 = 0.6155	x1 = 0.7061	x1 = 0.8134	x1 = 0.9145	x1 = 1
288.15 K	978.81	1008.61	1032.1	1061.02	1089.5	1119.7	1149.67	1187.43	1225.5	1260.01
298.15 K	969.5	998.88	1022	1050.47	1078.46	1108.12	1137.52	1174.53	1211.76	1245.48
308.15 K	960.16	989.1	1011.86	1039.86	1067.36	1096.48	1125.3	1161.53	1197.92	1230.83
318.15 K	950.78	979.28	1001.67	1029.19	1056.19	1084.75	1112.98	1148.42	1183.96	1216.04

ClCCCCCl [1,4-dichlorobutane] + O=C1CCCCC1
mass density [kg/m3], [2]
Conditions	x1 = 0.1063	x1 = 0.1969	x1 = 0.2901	x1 = 0.3808	x1 = 0.4803	x1 = 0.5814	x1 = 0.6763	x1 = 0.7751	x1 = 0.8849	x1 = 1
288.15 K	973.11	991.09	1009.39	1027.04	1046.24	1065.55	1083.46	1101.96	1122.33	1143.49
298.15 K	964	981.82	999.94	1017.42	1036.41	1055.52	1073.23	1091.52	1111.66	1132.57
308.15 K	954.86	972.51	990.46	1007.76	1026.55	1045.46	1062.97	1081.05	1100.96	1121.61
318.15 K	945.69	963.17	980.95	998.07	1016.66	1035.37	1052.68	1070.54	1090.21	1110.61

O=C1CCCCC1 [cyclohexanone] + ClC(Cl)Cl
[2], x2 = 0
Conditions	mass density [kg/m3]
288.15 K	951.69
298.15 K	942.76
308.15 K	933.8
318.15 K	924.82

ClC(Cl)Cl [trichloromethane] + O=C1CCCCC1
mass density [kg/m3], [2]
Conditions	x1 = 0.1198	x1 = 0.2362	x1 = 0.305	x1 = 0.4235	x1 = 0.5103	x1 = 0.6047	x1 = 0.6953	x1 = 0.8109	x1 = 0.9089	x1 = 1
288.15 K	1004.15	1058.19	1091.64	1151.88	1198.22	1250.45	1303.06	1372.1	1433.35	1491.86
298.15 K	994.58	1047.93	1080.94	1140.29	1185.89	1237.16	1288.8	1356.3	1416.12	1473.16
308.15 K	984.97	1037.61	1070.16	1128.62	1173.48	1223.78	1274.42	1340.36	1398.68	1454.07
318.15 K	975.32	1027.25	1059.32	1116.88	1160.97	1210.28	1259.9	1324.23	1381.01	1434.72

CC(Cl)(Cl)Cl [1,1,1-trichloroethane] + O=C1CCCCC1
mass density [kg/m3], [2]
Conditions	x1 = 0.1151	x1 = 0.2288	x1 = 0.3155	x1 = 0.4163	x1 = 0.5167	x1 = 0.6059	x1 = 0.7081	x1 = 0.8062	x1 = 0.8979	x1 = 1
288.15 K	996.74	1041.75	1076.19	1116.3	1156.17	1191.52	1231.85	1270.3	1305.81	1344.95
298.15 K	987.13	1031.43	1065.28	1104.68	1143.81	1178.45	1217.94	1255.52	1290.16	1328.27
308.15 K	977.49	1021.06	1054.33	1093.01	1131.39	1165.33	1203.95	1240.64	1274.41	1311.45
318.15 K	967.81	1010.65	1043.33	1081.28	1118.9	1152.12	1189.86	1225.64	1258.51	1294.47

O=C1CCCCC1 [cyclohexanone] + ClCCCCl
[2], x2 = 0
Conditions	mass density [kg/m3]
288.15 K	951.69
298.15 K	942.76
308.15 K	933.8
318.15 K	924.82

O=C1CCCCC1 [cyclohexanone] + CC(Cl)(Cl)Cl
[2], x2 = 0
Conditions	mass density [kg/m3]
288.15 K	951.69
298.15 K	942.76
308.15 K	933.8
318.15 K	924.82

CC(Cl)(Cl)Cl [1,1,1-trichloroethane]
[1]
Conditions	mass density [kg/m3]
288.15 K	1344.95
298.15 K	1328.27
308.15 K	1311.45
318.15 K	1294.47

ClC(Cl)C(Cl)Cl [1,1,2,2-tetrachloroethane] + O=C1CCCCC1
mass density [kg/m3], [2]
Conditions	x1 = 0.1147	x1 = 0.2121	x1 = 0.3045	x1 = 0.4052	x1 = 0.4996	x1 = 0.5909	x1 = 0.6868	x1 = 0.782	x1 = 0.8798	x1 = 1
288.15 K	1029.34	1094.87	1156.78	1223.8	1286.07	1345.8	1407.73	1468.5	1530.11	1604.75
298.15 K	1019.79	1084.77	1146.13	1212.52	1274.18	1333.31	1394.58	1454.64	1515.52	1589.18
308.15 K	1010.2	1074.62	1135.43	1201.2	1262.26	1320.77	1381.38	1440.76	1500.89	1573.57
318.15 K	1000.58	1064.44	1124.7	1189.84	1250.3	1308.2	1368.14	1426.83	1486.23	1557.94

O=C1CCCCC1 [cyclohexanone] + ClCCCCCl
[2], x2 = 0
Conditions	mass density [kg/m3]
288.15 K	951.69
298.15 K	942.76
308.15 K	933.8
318.15 K	924.82

ClC(Cl)C(Cl)Cl [1,1,2,2-tetrachloroethane]
[1]
Conditions	mass density [kg/m3]
288.15 K	1604.75
298.15 K	1589.18
308.15 K	1573.57
318.15 K	1557.94

CCCCCl [1-chlorobutane] + O=C1CCCCC1
mass density [kg/m3], [2]
Conditions	x1 = 0.1152	x1 = 0.2084	x1 = 0.3068	x1 = 0.4067	x1 = 0.5041	x1 = 0.5841	x1 = 0.692	x1 = 0.7881	x1 = 0.882	x1 = 1
288.15 K	945.58	940.43	934.95	929.27	923.6	918.86	912.28	906.18	900.11	892.1
298.15 K	936.47	931.18	925.51	919.65	913.78	908.86	902.02	895.71	889.37	881.05
308.15 K	927.34	921.88	916.03	909.97	903.89	898.78	891.68	885.12	878.54	869.86
318.15 K	918.17	912.54	906.5	900.22	893.92	888.63	881.25	874.42	867.57	858.52

O=C1CCCCC1 [cyclohexanone] + CCCCCl
[2], x2 = 0
Conditions	mass density [kg/m3]
288.15 K	951.69
298.15 K	942.76
308.15 K	933.8
318.15 K	924.82

O=C1CCCCC1 [cyclohexanone] + ClC(Cl)C(Cl)Cl
[2], x2 = 0
Conditions	mass density [kg/m3]
288.15 K	951.69
298.15 K	942.76
308.15 K	933.8
318.15 K	924.82

ClCCCCl [1,3-dichloropropane] + O=C1CCCCC1
mass density [kg/m3], [2]
Conditions	x1 = 0.1276	x1 = 0.227	x1 = 0.3268	x1 = 0.4189	x1 = 0.514	x1 = 0.6112	x1 = 0.7147	x1 = 0.8103	x1 = 0.8979	x1 = 1
288.15 K	979.76	1001.99	1024.79	1046.27	1068.86	1092.38	1118.03	1142.26	1164.89	1191.93
298.15 K	970.5	992.46	1014.95	1036.15	1058.41	1081.63	1106.86	1130.71	1152.99	1179.58
308.15 K	961.22	982.9	1005.09	1025.99	1047.94	1070.82	1095.64	1119.11	1141.03	1167.16
318.15 K	951.9	973.3	995.19	1015.78	1037.41	1059.94	1084.36	1107.45	1128.99	1154.67

O=C1CCCCC1 [cyclohexanone] + ClCCCl
[2], x2 = 0
Conditions	mass density [kg/m3]
288.15 K	951.69
298.15 K	942.76
308.15 K	933.8
318.15 K	924.82

ClCCCCl [1,3-dichloropropane]
[1]
Conditions	mass density [kg/m3]
288.15 K	1191.93
298.15 K	1179.58
308.15 K	1167.16
318.15 K	1154.67

CCCCCl [1-chlorobutane]
[1]
Conditions	mass density [kg/m3]
288.15 K	892.1
298.15 K	881.05
308.15 K	869.86
318.15 K	858.52
